Test results reported in patent US12215085B2 (priority 2019, dated 2025).
Marks after values point to notes of the source that are not given here.

Experiments:
Acute toxicity LD50, rat = settings: in vivo, po
rat = experiment: Acute toxicity LD50, rat; settings: clinical daily dosage 8 mg/60 kg human/day, per kilogram body weight
[1] = system: rats with beta-amyloid induced senile dementia; experiment: Water maze test, beta-amyloid induced senile dementia rats; assay type: in vivo, rat; settings: for adopted strategy for reaching the platform (the peripheral type and the random type %) / orientation angle for reaching the platform / speed for reaching the platform / swimming path length for reaching the platform / time for reaching the platform: succinate; for orientation angle for reaching the platform / speed for reaching the platform / swimming path length for reaching the platform / time for reaching the platform: x ± s
[2] = system: rats with common carotid artery occlusion-induced vascular dementia; experiment: Step-down test, common carotid artery occlusion-induced vascular dementia rats; assay type: in vivo, rat; settings: for Day 1, Error number / Day 2, Error latency / Day 2, Error number: step-down method, x ± s, succinate
Source text: A rat blood vessel dementia model was made according to the references [ZHAO Xian-lin, FANG Xiu-bin, LI Dong-pei. Establishment of Vascular Dementia Model in Rats, J Chin Med Univ, 2002, 31 (3): 166-168; WANG Yong-yan, Zhang Bo-li, Editor-in-chief. Modern Chinese Medicine Clinic and Research on Vascular Dementia, People's Medical Publishing House, October 2003, First Version 214]: Chloral hydrate 0.4 g/kg was intraperitoneally injected for anesthetizing rats, and bilateral common carotid arteries were isolated and ligated. The animals were fed for 16 weeks, divided into groups on the last 7 days, and administered. The normal control group and the model group were administrated through the intragastric route with distilled water by 0.5 ml/100 g, the positive control group was administrated through the intragastric route with donepezil hydrochloride by 1.75 mg/kg (equivalent to 3.85 times the clinical daily dosage of 5 mg/70 kg), the low, medium and high-dose groups of Crystal Form A of octahydroaminoacridine succinate were administrated through the intragastric route with Crystal Form A of octahydroaminoacridine succinate by 0.7, 1.4 and 2.8 mg/kg (equivalent to 0.96, 1.92 and 3.85 times the clinical daily dosage of 8 mg/70 kg). The water maze test and the step-down test were carried out after continuous administration for 7 days, and the administration was continued during the test period. The water maze test was continuously performed for 7 days, in the first 6 days, in four different water entry points of quadrants 1, 2, 3 and 4, the time, the swimming path length, the orientation angle and the average speed of the rat reaching the platform were measured, meanwhile, the strategy for reaching the platform adopted by rats was observed, on the 7th day, the platform was removed, the number of rats crossing the platform in 2 minutes, the residence time in the platform area, the residence time in the platform quadrants, the percentage of the swimming path length in the platform area quadrants to the total swimming path length, the average speed and the orientation angle were measured. After the water maze test was finished, the step-down test was performed, and the number of electric shocks (or called as the error number) received by each rat within 5 minutes was recorded as the learning performance. The test was performed again after 24 hours, namely, the memory retention test, and the latent period for stepping-down the platform for the first time and the error number in five minutes were recorded. After the step-down test was finished, the brain was taken quickly for pathological examination, and the pathological changes of the hippocampus and the cortex were observed.

[3] = 0.7, 1.4 and 2.8 mg/kg, Day 7, P<0.05 or P<0.01
[4] = Day 1, 0.7 mg/kg intragastric, 0.7 mg/kg
[5] = Day 1, 1.4 mg/kg intragastric, 1.4 mg/kg
[6] = Day 1, 2.8 mg/kg intragastric, 2.8 mg/kg
[7] = Day 2, 0.7 mg/kg intragastric, 0.7 mg/kg
[8] = Day 2, 1.4 mg/kg intragastric, 1.4 mg/kg
[9] = Day 2, 2.8 mg/kg intragastric, 2.8 mg/kg
[10] = Day 3, 0.7 mg/kg intragastric, 0.7 mg/kg
[11] = Day 3, 1.4 mg/kg intragastric, 1.4 mg/kg
[12] = Day 3, 2.8 mg/kg intragastric, 2.8 mg/kg
[13] = Day 4, 0.7 mg/kg intragastric, 0.7 mg/kg
[14] = Day 4, 1.4 mg/kg intragastric, 1.4 mg/kg
[15] = Day 4, 2.8 mg/kg intragastric, 2.8 mg/kg
[16] = Day 5, 0.7 mg/kg intragastric, 0.7 mg/kg
[17] = Day 5, 1.4 mg/kg intragastric, 1.4 mg/kg
[18] = Day 5, 2.8 mg/kg intragastric, 2.8 mg/kg
[19] = Day 6, 0.7 mg/kg intragastric, 0.7 mg/kg
[20] = Day 6, 1.4 mg/kg intragastric, 1.4 mg/kg
[21] = Day 6, 2.8 mg/kg intragastric, 2.8 mg/kg
[22] = 0.7 mg/kg intragastric, 0.7 mg/kg
[23] = 1.4 mg/kg intragastric, 1.4 mg/kg
[24] = 2.8 mg/kg intragastric, 2.8 mg/kg

## Nc1c2c(nc3c1CCCC3)CCCC2.O=C(O)CCC(=O)O [Crystal Form A, 9-amino-1,2,3,4,5,6,7,8-octahydroacridine succinate]
Acute toxicity LD50, rat
  LD50: 110 ± 9.1 mg/kg
rat
  LD50 as multiple of the clinical daily dosage: ~824.3 times
[1]; 0.7 mg/kg, Day 1, P<0.05
  latent period for reaching the platform vs model group: obviously shortened
[1]; 1.4 mg/kg, Day 1 to Day 6, P<0.05 or P<0.01
  latent period for reaching the platform vs model group: obviously shortened
[1]; 1.4 mg/kg, Day 3 and Day 5, P<0.05
  swimming path length for reaching the platform vs model group: obviously shortened
[1]; 1.4 mg/kg, Day 7, P<0.05
  percentage of the swimming path length in the platform area quadrants to the total swimming path length vs model group: obviously increased
  residence time in the platform quadrants vs model group: obviously increased
[1]; 2.8 mg/kg, Day 2, Day 3, Day 5 and Day 6, P<0.05 or P<0.01
  orientation angle vs model group: obviously decreased
[1]; 2.8 mg/kg, Day 2 to Day 6, P<0.05 or P<0.01
  latent period for reaching the platform vs model group: obviously shortened
[1]; 2.8 mg/kg, Day 5 and Day 6, P<0.05
  swimming path length for reaching the platform vs model group: obviously shortened
[1]; 0.7, 1.4 and 2.8 mg/kg, Day 1, P<0.05
  swimming speed vs model group: obviously increased
[1]; 0.7, 1.4 and 2.8 mg/kg, Day 7
  average speed and orientation angle vs model group: not obviously changed
[1]; [3]
  number of rats crossing the platform within 2 minutes vs model group: obviously increased
  residence time on the platform vs model group: obviously increased
[1]; 0.7, 1.4 and 2.8 mg/kg, P<0.05 or P<0.01
  conversion from the peripheral type and the random type to the tendency type and the linear type in the strategy for looking for the platform: obviously increased
[1]; 0.7 and 1.4 mg/kg, Day 2, P<0.05
  orientation angle vs model group: obviously decreased
[1]; [4]
  adopted strategy for reaching the platform (the peripheral type and the random type %): 87.50%
  orientation angle for reaching the platform: 62.79 ± 19.80 °
  speed for reaching the platform: 22.41 ± 7.84 cm/s
  swimming path length for reaching the platform: 1169.52 ± 985.73 cm
  time for reaching the platform: 51.79 ± 26.01 s
[1]; [5]
  adopted strategy for reaching the platform (the peripheral type and the random type %): 92.50%
  orientation angle for reaching the platform: 77.42 ± 21.94 °
  speed for reaching the platform: 21.16 ± 5.82 cm/s
  swimming path length for reaching the platform: 1022.59 ± 558.57 cm
  time for reaching the platform: 47.00 ± 19.96 s
[1]; [6]
  adopted strategy for reaching the platform (the peripheral type and the random type %): 95.50%
  orientation angle for reaching the platform: 61.45 ± 13.71 °
  speed for reaching the platform: 19.76 ± 2.88 cm/s
  swimming path length for reaching the platform: 1215.28 ± 534.19 cm
  time for reaching the platform: 65.22 ± 26.94 s
[1]; [7]
  adopted strategy for reaching the platform (the peripheral type and the random type %): 68.75%
  orientation angle for reaching the platform: 48.33 ± 25.33 °
  speed for reaching the platform: 28.34 ± 10.42 cm/s
  swimming path length for reaching the platform: 762.15 ± 878.65 cm
  time for reaching the platform: 29.20 ± 28.52 s
[1]; [8]
  adopted strategy for reaching the platform (the peripheral type and the random type %): 77.50%
  orientation angle for reaching the platform: 53.95 ± 19.36 °
  speed for reaching the platform: 24.65 ± 5.95 cm/s
  swimming path length for reaching the platform: 657.63 ± 419.44 cm
  time for reaching the platform: 29.60 ± 18.83 s
[1]; [9]
  adopted strategy for reaching the platform (the peripheral type and the random type %): 67.50* %
  orientation angle for reaching the platform: 42.58 ± 17.57 °
  speed for reaching the platform: 23.62 ± 5.04 cm/s
  swimming path length for reaching the platform: 717.16 ± 484.50 cm
  time for reaching the platform: 27.92 ± 18.96 s
[1]; [10]
  adopted strategy for reaching the platform (the peripheral type and the random type %): 87.50%
  orientation angle for reaching the platform: 59.46 ± 34.15 °
  speed for reaching the platform: 25.56 ± 10.30 cm/s
  swimming path length for reaching the platform: 922.69 ± 927.53 cm
  time for reaching the platform: 39.88 ± 39.00 s
[1]; [11]
  adopted strategy for reaching the platform (the peripheral type and the random type %): 70.50%
  orientation angle for reaching the platform: 49.79 ± 16.12 °
  speed for reaching the platform: 23.53 ± 5.74 cm/s
  swimming path length for reaching the platform: 359.75 ± 164.16 cm
  time for reaching the platform: 15.74 ± 5.83 s
[1]; [12]
  adopted strategy for reaching the platform (the peripheral type and the random type %): 70.00%
  orientation angle for reaching the platform: 41.19 ± 18.30 °
  speed for reaching the platform: 22.47 ± 2.59 cm/s
  swimming path length for reaching the platform: 426.44 ± 213.56 cm
  time for reaching the platform: 20.24 ± 10.26 s
[1]; [13]
  adopted strategy for reaching the platform (the peripheral type and the random type %): 64.50* %
  orientation angle for reaching the platform: 47.21 ± 18.21 °
  speed for reaching the platform: 24.92 ± 2.52 cm/s
  swimming path length for reaching the platform: 806.38 ± 1014.62 cm
  time for reaching the platform: 32.05 ± 39.88 s
[1]; [14]
  adopted strategy for reaching the platform (the peripheral type and the random type %): 77.50%
  orientation angle for reaching the platform: 53.54 ± 25.57 °
  speed for reaching the platform: 25.56 ± 4.54 cm/s
  swimming path length for reaching the platform: 493.65 ± 256.60 cm
  time for reaching the platform: 20.82 ± 11.32 s
[1]; [15]
  adopted strategy for reaching the platform (the peripheral type and the random type %): 67.50* %
  orientation angle for reaching the platform: 47.22 ± 23.29 °
  speed for reaching the platform: 27.31 ± 4.62 cm/s
  swimming path length for reaching the platform: 600.43 ± 563.07 cm
  time for reaching the platform: 22.73 ± 21.88 s
[1]; [16]
  adopted strategy for reaching the platform (the peripheral type and the random type %): 75.50* %
  orientation angle for reaching the platform: 54.72 ± 24.68 °
  speed for reaching the platform: 27.17 ± 13.51 cm/s
  swimming path length for reaching the platform: 571.38 ± 716.43 cm
  time for reaching the platform: 25.95 ± 33.84 s
[1]; [17]
  adopted strategy for reaching the platform (the peripheral type and the random type %): 57.50* %
  orientation angle for reaching the platform: 53.41 ± 23.18 °
  speed for reaching the platform: 20.14 ± 4.25 cm/s
  swimming path length for reaching the platform: 278.26 ± 125.79 cm
  time for reaching the platform: 14.95 ± 9.19 s
[1]; [18]
  adopted strategy for reaching the platform (the peripheral type and the random type %): 68.00** %
  orientation angle for reaching the platform: 43.23 ± 15.80 °
  speed for reaching the platform: 23.96 ± 4.94 cm/s
  swimming path length for reaching the platform: 312.55 ± 230.50 cm
  time for reaching the platform: 14.17 ± 11.56 s
[1]; [19]
  adopted strategy for reaching the platform (the peripheral type and the random type %): 65.50%
  orientation angle for reaching the platform: 46.47 ± 18.69 °
  speed for reaching the platform: 23.50 ± 9.00 cm/s
  swimming path length for reaching the platform: 461.68 ± 417.67 cm
  time for reaching the platform: 21.76 ± 23.11 s
[1]; [20]
  adopted strategy for reaching the platform (the peripheral type and the random type %): 68.50%
  orientation angle for reaching the platform: 46.29 ± 22.64 °
  speed for reaching the platform: 20.87 ± 4.35 cm/s
  swimming path length for reaching the platform: 402.97 ± 434.93 cm
  time for reaching the platform: 20.62 ± 22.63 s
[1]; [21]
  adopted strategy for reaching the platform (the peripheral type and the random type %): 52.50** %
  orientation angle for reaching the platform: 40.91 ± 15.25 °
  speed for reaching the platform: 24.73 ± 4.83 cm/s
  swimming path length for reaching the platform: 252.87 ± 161.30 cm
  time for reaching the platform: 10.70 ± 6.74 s
[2]; 1.4 mg/kg, Day 2, P<0.05
  step-down error number vs model group: obviously reduced
[2]; 2.8 mg/kg, Day 1 and Day 2, P<0.05
  step-down error number vs model group: obviously reduced
[2]; 2.8 mg/kg, Day 2, P<0.05
  error latency vs model group: obviously prolonged
[2]; [22]
  Day 1, Error number: 7.50 ± 4.06
  Day 2, Error latency: 215.30 ± 83.07 s
  Day 2, Error number: 1.70 ± 1.49
[2]; [23]
  Day 1, Error number: 6.60 ± 2.88
  Day 2, Error latency: 223.70 ± 75.02 s
  Day 2, Error number: 1.30 ± 1.25
[2]; [24]
  Day 1, Error number: 5.80 ± 2.65
  Day 2, Error latency: 250.10 ± 72.32 s
  Day 2, Error number: 0.90 ± 1.28
